Assays:
Type in all cases: in vivo
Parameters in all cases: key: 0 is no effect; 10 is complete control
soybean (Glycine max) = assay: Test B pre-/postemergence
Procedure, shortened: (§1)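 Seeds were planted and sprayed preemergence, while plants at 2 to 18 cm (1- to 4-leaf stage) were sprayed postemergence at the same time, with test chemical in a non-phytotoxic solvent mixture containing surfactant. After twelve to sixteen days in a greenhouse, injury was rated visually against untreated controls on a 0–10 scale.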

[1] = tested on: momingglory (Ipomoea hederacea); assay: Test B pre-/postemergence
Procedure, shortened: as §1

wild oat (Avena fatua) = assay: Test B pre-/postemergence
Procedure, shortened: as §1

corn (Zea mays) = assay: Test B pre-/postemergence; details: for Corn plant response rating: Preemergence
Procedure, shortened: as §1

rape (Brassica napus) = assay: Test B pre-/postemergence
Procedure, shortened: as §1

[2] = tested on: pigweed (Amaranthus retroflexus); assay: Test B pre-/postemergence
Procedure, shortened: as §1

[3] = tested on: bedstraw (Galium aparine); assay: Test B pre-/postemergence; details: for Bedstraw plant response rating: Preemergence
Procedure, shortened: as §1

[4] = tested on: velvetleaf (Abutilon theophrasti); assay: Test B pre-/postemergence
Procedure, shortened: as §1

[5] = tested on: cocklebur (Xanthium strumarium); assay: Test B pre-/postemergence; details: for Cocklebur plant response rating: Preemergence
Procedure, shortened: as §1

[6] = tested on: blackgrass (Alopecurus myosuroides); assay: Test B pre-/postemergence; details: for Blackgrass plant response rating: Preemergence
Procedure, shortened: as §1

[7] = tested on: wheat (Triticum aestivum); assay: Test B pre-/postemergence
Procedure, shortened: as §1

[8] = tested on: giant foxtail (Setaria faberii); assay: Test B pre-/postemergence
Procedure, shortened: as §1

[9] = tested on: crabgrass (Digitaria sanguinalis); assay: Test B pre-/postemergence; details: for Crabgrass plant response rating: Preemergence
Procedure, shortened: as §1

[10] = tested on: purple nutsedge (Cyperus rotundus); assay: Test B pre-/postemergence
Procedure, shortened: as §1

[11] = tested on: sugar beet (Beta vulgaris); assay: Test B pre-/postemergence
Procedure, shortened: as §1

[12] = tested on: broadleaf signalgrass (Brachiaria decumbens); assay: Test B pre-/postemergence; details: for B. signalgrass plant response rating: Preemergence
Procedure, shortened: as §1

[13] = tested on: bamyardgrass (Echinochloa crus-galli); assay: Test B flood test
Procedure, shortened: (§2)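 Plants were grown to the 2-leaf stage before treatment with test chemical, then held in a greenhouse for twelve to sixteen days. Injury was visually rated against untreated controls on a 0–10 scale, where 0 is no effect and 10 is complete control.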

rice (Oryza sativa) = assay: Test B flood test
Procedure, shortened: as §2

[14] = tested on: smallflower flatsedge (Cyperus difformis); assay: Test B flood test
Procedure, shortened: as §2

[15] = tested on: duck salad (Heteranthera limosa); assay: Test B flood test
Procedure, shortened: as §2

[16] = Rate 250 g/ha, Postemergence (so in the source)
[17] = Rate 62 g/ha, Postemergence (flood test)
[18] = Rate 125 g/ha, Postemergence, flood test
[19] = Rate 250 g/ha, Postemergence (flood test species)
[20] = Rate 125 g/ha, Postemergence section (flood test species)

SMILES: Cc1cnc(-c2ccccc2F)nc1Cc1cccc(C#N)c1 [Compound 37]
- Plant response rating, Soybean (soybean (Glycine max); Rate 62 g/ha, Postemergence): 0
- Soybean plant response rating (soybean (Glycine max); Rate 62 g/ha, Preemergence): 0
- Soybean plant response rating (soybean (Glycine max); Rate 125 g/ha, Postemergence): 0
- Plant response rating, Soybean (soybean (Glycine max); Rate 125 g/ha, Preemergence): 0
- Plant response rating, Soybean (soybean (Glycine max); Rate 250 g/ha, Postemergence): 0
- Plant response rating, Soybean (soybean (Glycine max); [16]): 0
- Plant response rating, Morningglory ([1]; Rate 62 g/ha, Postemergence): 1
- Morningglory plant response rating ([1]; Rate 62 g/ha, Preemergence): 0
- Morningglory plant response rating ([1]; Rate 125 g/ha, Postemergence): 1
- Morningglory plant response rating ([1]; Rate 125 g/ha, Preemergence): 0
- Plant response rating, Morningglory ([1]; Rate 250 g/ha, Postemergence): 1
- Plant response rating, Morningglory [1, 16]: 0
- Wild oats plant response rating (wild oat (Avena fatua); Rate 62 g/ha, Postemergence): 0
- Wild oats plant response rating (wild oat (Avena fatua); Rate 62 g/ha, Preemergence): 0
- Wild oats plant response rating (wild oat (Avena fatua); Rate 125 g/ha, Postemergence): 0
- Plant response rating, Wild oats (wild oat (Avena fatua); Rate 125 g/ha, Preemergence): 0
- Plant response rating, Wild oats (wild oat (Avena fatua); Rate 250 g/ha, Postemergence): 0
- Plant response rating, Wild oats (wild oat (Avena fatua); [16]): 0
- Plant response rating, Corn (corn (Zea mays); Rate 62 g/ha, Postemergence): 1
- Corn plant response rating (corn (Zea mays); Rate 62 g/ha): 0
- Plant response rating, Corn (corn (Zea mays); Rate 125 g/ha, Postemergence): 1
- Corn plant response rating (corn (Zea mays); Rate 125 g/ha): 0
- Plant response rating, Corn (corn (Zea mays); Rate 250 g/ha, Postemergence): 1
- Plant response rating, Corn (corn (Zea mays); [16]): 0
- Plant response rating, Rape (rape (Brassica napus); Rate 62 g/ha, Postemergence): 1
- Rape plant response rating (rape (Brassica napus); Rate 62 g/ha, Preemergence): 0
- Rape plant response rating (rape (Brassica napus); Rate 125 g/ha, Postemergence): 3
- Rape plant response rating (rape (Brassica napus); Rate 125 g/ha, Preemergence): 0
- Plant response rating, Rape (rape (Brassica napus); Rate 250 g/ha, Postemergence): 4
- Plant response rating, Rape (rape (Brassica napus); [16]): 0
- Plant response rating, Redroot pigweed ([2]; Rate 62 g/ha, Postemergence): 1
- Redroot pigweed plant response rating ([2]; Rate 62 g/ha, Preemergence): 0
- Redroot pigweed plant response rating ([2]; Rate 125 g/ha, Postemergence): 1
- Redroot pigweed plant response rating ([2]; Rate 125 g/ha, Preemergence): 0
- Plant response rating, Redroot pigweed ([2]; Rate 250 g/ha, Postemergence): 7
- Plant response rating, Redroot pigweed [2, 16]: 0
- Plant response rating, Bedstraw ([3]; Rate 62 g/ha, Postemergence): 1
- Bedstraw plant response rating ([3]; Rate 62 g/ha): 0
- Plant response rating, Bedstraw ([3]; Rate 125 g/ha, Postemergence): 1
- Bedstraw plant response rating ([3]; Rate 125 g/ha): 0
- Plant response rating, Bedstraw [3, 16]: 0
- Plant response rating, Velvetleaf ([4]; Rate 62 g/ha, Postemergence): 0
- Velvetleaf plant response rating ([4]; Rate 62 g/ha, Preemergence): 0
- Velvetleaf plant response rating ([4]; Rate 125 g/ha, Postemergence): 0
- Plant response rating, Velvetleaf ([4]; Rate 125 g/ha, Preemergence): 0
- Plant response rating, Velvetleaf ([4]; Rate 250 g/ha, Postemergence): 1
- Plant response rating, Velvetleaf [4, 16]: 0
- Plant response rating, Cocklebur ([5]; Rate 62 g/ha, Postemergence): 1
- Cocklebur plant response rating ([5]; Rate 62 g/ha): 0
- Plant response rating, Cocklebur ([5]; Rate 125 g/ha, Postemergence): 2
- Cocklebur plant response rating ([5]; Rate 125 g/ha): 0
- Plant response rating, Cocklebur ([5]; Rate 250 g/ha, Postemergence): 3
- Plant response rating, Cocklebur [5, 16]: 0
- Plant response rating, Blackgrass ([6]; Rate 62 g/ha, Postemergence): 0
- Blackgrass plant response rating ([6]; Rate 62 g/ha): 0
- Plant response rating, Blackgrass ([6]; Rate 125 g/ha, Postemergence): 0
- Blackgrass plant response rating ([6]; Rate 125 g/ha): 0
- Plant response rating, Blackgrass ([6]; Rate 250 g/ha, Postemergence): 0
- Plant response rating, Blackgrass [6, 16]: 0
- Wheat plant response rating ([7]; Rate 62 g/ha, Postemergence): 0
- Wheat plant response rating ([7]; Rate 62 g/ha, Preemergence): 0
- Wheat plant response rating ([7]; Rate 125 g/ha, Postemergence): 0
- Plant response rating, Wheat ([7]; Rate 125 g/ha, Preemergence): 0
- Plant response rating, Wheat ([7]; Rate 250 g/ha, Postemergence): 0
- Plant response rating, Wheat [7, 16]: 0
- Plant response rating, Giant foxtail ([8]; Rate 62 g/ha, Postemergence): 0
- Giant foxtail plant response rating ([8]; Rate 62 g/ha, Preemergence): 0
- Giant foxtail plant response rating ([8]; Rate 125 g/ha, Postemergence): 0
- Giant foxtail plant response rating ([8]; Rate 125 g/ha, Preemergence): 0
- Plant response rating, Giant foxtail ([8]; Rate 250 g/ha, Postemergence): 1
- Plant response rating, Giant foxtail [8, 16]: 0
- Plant response rating, Crabgrass ([9]; Rate 62 g/ha, Postemergence): 0
- Crabgrass plant response rating ([9]; Rate 62 g/ha): 0
- Plant response rating, Crabgrass ([9]; Rate 125 g/ha, Postemergence): 0
- Crabgrass plant response rating ([9]; Rate 125 g/ha): 0
- Plant response rating, Crabgrass ([9]; Rate 250 g/ha, Postemergence): 1
- Plant response rating, Crabgrass [9, 16]: 0
- Plant response rating, Nutsedge ([10]; Rate 62 g/ha, Postemergence): 0
- Nutsedge plant response rating ([10]; Rate 62 g/ha, Preemergence): 0
- Nutsedge plant response rating ([10]; Rate 125 g/ha, Postemergence): 0
- Nutsedge plant response rating ([10]; Rate 125 g/ha, Preemergence): 0
- Plant response rating, Nutsedge ([10]; Rate 250 g/ha, Postemergence): 0
- Plant response rating, Nutsedge [10, 16]: 0
- Plant response rating, Sugarbeets ([11]; Rate 62 g/ha, Postemergence): 1
- Sugarbeets plant response rating ([11]; Rate 62 g/ha, Preemergence): 0
- Sugarbeets plant response rating ([11]; Rate 125 g/ha, Postemergence): 5
- Plant response rating, Sugarbeets ([11]; Rate 125 g/ha, Preemergence): 0
- Plant response rating, Sugarbeets ([11]; Rate 250 g/ha, Postemergence): 5
- Plant response rating, Sugarbeets [11, 16]: 0
- Plant response rating, B. signalgrass ([12]; Rate 62 g/ha, Postemergence): 0
- B. signalgrass plant response rating ([12]; Rate 62 g/ha): 0
- Plant response rating, B. signalgrass ([12]; Rate 125 g/ha, Postemergence): 0
- B. signalgrass plant response rating ([12]; Rate 125 g/ha): 0
- Plant response rating, B. signalgrass ([12]; Rate 250 g/ha, Postemergence): 0
- Plant response rating, B. signalgrass ([12]; Rate 250 g/ha, Postemergence as printed in head r139 (second section for compounds 26-50)): 0
- Plant response rating, Barnyardgrass [13, 17]: 0
- Plant response rating, Barnyardgrass [13, 18]: 0
- Plant response rating, Barnyardgrass [13, 19]: 0
- Plant response rating, Rice (rice (Oryza sativa); [17]): 0
- Rice plant response rating (rice (Oryza sativa); [20]): 0
- Plant response rating, Rice (rice (Oryza sativa); [19]): 0
- Plant response rating, S. Flatsedge [14, 17]: 0
- S. Flatsedge plant response rating [14, 20]: 0
- Plant response rating, S. Flatsedge [14, 19]: 0
- Plant response rating, Ducksalad [15, 17]: 0
- Plant response rating, Ducksalad [15, 18]: 0
- Plant response rating, Ducksalad [15, 19]: 0
